Measured values as given in ChEMBL document CHEMBL3739341, “Calycosin inhibits oxidative stress-induced cardiomyocyte apoptosis via activating estrogen receptor-α/β” (Bioorg Med Chem Lett, 2016).
Activity calls are given as the source filed them. The calls are words filed in the database; no cut-off is given here.

What was measured:
H9c2 [1] = experiment: Inhibition of H2O2-induced loss of cell viability in rat H9c2 cells at 5,10 and 20 uM after 24 hrs by MTT assay; assay type: functional, cell-based
[2] = biological target: T1, Estrogen receptor (Rattus norvegicus) (UniProt P06211+Q62986); experiment: Activation of ER-alpha/beta in rat H9c2 cells assessed as phosphorylated Akt level at 5,10 and 20 uM after 24 hrs by western blot analysis in presence of ER inhibitor ICI182780; assay type: cell-based
[3] = biological target: T1, Estrogen receptor (Rattus norvegicus); experiment: Activation of ER-alpha/beta in rat H9c2 cells assessed as increase in phosphorylated Akt level after 24 hrs by western blot analysis; assay type: cell-based
H9c2 [4] = experiment: Inhibition of H2O2-induced apoptosis in rat H9c2 cells at 5,10 and 20 uM after 24 hrs by AO/EB staining based fluorescence microscopic analysis in presence of ER inhibitor ICI182780; assay type: functional, cell-based
H9c2 [5] = experiment: Inhibition of H2O2-induced loss of cell viability in rat H9c2 cells at 5,10 and 20 uM after 24 hrs by MTT assay in presence of ER inhibitor ICI182780; assay type: functional, cell-based
H9c2 [6] = experiment: Upregulation of ER-alpha expression in rat H9c2 cells after 24 hrs by western blot analysis; assay type: functional, cell-based
H9c2 [7] = experiment: Upregulation of ER-beta expression in rat H9c2 cells after 24 hrs by western blot analysis; assay type: functional, cell-based
H9c2 [8] = experiment: Inhibition of H2O2-induced apoptosis in rat H9c2 cells after 24 hrs by AO/EB staining based fluorescence microscopic analysis; assay type: functional, cell-based

Compound: COc1ccc(-c2coc3cc(O)ccc3c2=O)cc1O
- inhibition (H9c2 [1]): Active
- Activity [2]: inactive
- Activity [3]: Active
- inhibition (H9c2 [4]): inactive
- inhibition (H9c2 [5]): inactive
- Activity (H9c2 [6]): Dose-dependent effect
- Activity (H9c2 [7]): Dose-dependent effect
- inhibition (H9c2 [8]): Dose-dependent effect
